Data reported in ChEMBL document CHEMBL1130375, “Pyridazinones with a pendant acylsulfonamide moiety as endothelin receptor antagonists” (Bioorg Med Chem Lett, 1997).
pIC50: −log10 of the molar value.

Columns and labels:
Endothelin-1 receptor [1] = biological target: T1, Endothelin-1 receptor (Rattus norvegicus, UniProt P26684); assay: Compound was evaluated for the antagonism at the Endothelin A receptor (G-protein coupled endothelin A); assay type: functional; settings: read-out: pA2 (converted)
T1 sequence (P26684 whole entry): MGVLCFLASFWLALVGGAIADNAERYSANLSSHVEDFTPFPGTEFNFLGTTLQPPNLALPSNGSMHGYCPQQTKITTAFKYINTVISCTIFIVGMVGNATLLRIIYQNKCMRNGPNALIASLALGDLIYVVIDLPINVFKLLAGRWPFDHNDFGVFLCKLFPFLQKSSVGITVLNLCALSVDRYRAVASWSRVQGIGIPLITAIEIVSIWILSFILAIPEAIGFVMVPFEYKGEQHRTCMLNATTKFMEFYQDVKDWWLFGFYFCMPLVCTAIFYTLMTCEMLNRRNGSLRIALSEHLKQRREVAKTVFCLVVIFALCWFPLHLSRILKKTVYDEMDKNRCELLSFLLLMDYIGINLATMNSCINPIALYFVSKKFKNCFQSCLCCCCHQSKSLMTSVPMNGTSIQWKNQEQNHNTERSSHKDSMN

Endothelin-1 receptor [2] = biological target: T1, Endothelin-1 receptor; assay: Inhibition of specific binding of [125I]ET1 (endothelin 1) to the endothelin A receptor of rat aorta membranes; assay type: cell membranes, Membrane
[3] = biological target: T2, Endothelin receptor type B (Sus scrofa, UniProt P35463); assay: Inhibition of specific binding of [125I]ET1 (endothelin 1) to endothelin B receptor of porcine kidney membranes
T2 sequence (P35463 whole entry): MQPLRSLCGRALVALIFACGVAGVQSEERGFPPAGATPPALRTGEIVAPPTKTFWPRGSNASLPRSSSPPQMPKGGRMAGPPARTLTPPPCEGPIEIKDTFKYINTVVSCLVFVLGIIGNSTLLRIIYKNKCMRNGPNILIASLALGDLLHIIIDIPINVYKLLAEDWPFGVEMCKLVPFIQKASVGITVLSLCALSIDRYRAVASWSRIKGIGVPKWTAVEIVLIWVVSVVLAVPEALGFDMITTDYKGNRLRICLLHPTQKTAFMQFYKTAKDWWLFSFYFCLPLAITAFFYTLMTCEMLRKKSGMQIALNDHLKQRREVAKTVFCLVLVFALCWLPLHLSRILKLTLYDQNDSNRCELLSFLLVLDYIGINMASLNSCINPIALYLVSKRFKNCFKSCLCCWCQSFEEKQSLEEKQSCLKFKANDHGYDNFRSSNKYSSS

[4] = biological target: T3, Endothelin receptor type B (Homo sapiens, UniProt P24530); assay: Compound was evaluated for the antagonism at the Endothelin B receptor in isolated rabbit jugularis vein; assay type: functional, Oryctolagus cuniculus; settings: target entry is the homologue from another species; read-out: pA2 (converted)
T3 sequence (P24530 whole entry): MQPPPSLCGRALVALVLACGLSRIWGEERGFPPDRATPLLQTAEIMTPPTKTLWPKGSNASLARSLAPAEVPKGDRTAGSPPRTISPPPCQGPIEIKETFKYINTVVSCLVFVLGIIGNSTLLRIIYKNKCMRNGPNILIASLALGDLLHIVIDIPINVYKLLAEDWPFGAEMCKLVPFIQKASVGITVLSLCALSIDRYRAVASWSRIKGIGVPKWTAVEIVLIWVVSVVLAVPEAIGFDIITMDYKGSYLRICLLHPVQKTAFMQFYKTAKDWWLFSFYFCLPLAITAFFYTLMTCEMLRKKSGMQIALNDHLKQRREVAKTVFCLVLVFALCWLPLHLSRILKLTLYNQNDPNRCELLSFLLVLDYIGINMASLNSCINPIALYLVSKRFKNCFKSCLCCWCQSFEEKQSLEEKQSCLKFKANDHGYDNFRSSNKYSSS

Endothelin-1 receptor [5] = biological target: T1, Endothelin-1 receptor; assay: Compound was evaluated for the antagonism at the Endothelin A receptor in isolated rat aortic rings; assay type: functional; settings: read-out: pA2 (converted)

Row | Kb (Endothelin-1 receptor [1]) | pIC50 (Endothelin-1 receptor [2]) | pIC50 [3] | Kb [4] | Kb (Endothelin-1 receptor [5]) | Structure (SMILES)
1 | 3.16 nM | 7.39 | 6.05 |  |  | CCCc1cc(C(=O)O)ccc1OC(C(=O)NS(=O)(=O)c1ccc(C(C)C)cc1)c1ccc2c(c1)OCO2 (stereo not given)
2 |  | 6.19 | 5.08 |  |  | CCCc1ccc(=O)n(C(C(=O)NS(=O)(=O)c2ccc(C(C)C)cc2)c2ccc3c(c2)OCO3)n1 (stereo not given)
3 |  | 5.54 | 5.38 |  |  | COc1ccc(C2=NN(C(C(=O)NS(=O)(=O)c3ccc(C(C)C)cc3)c3ccc4c(c3)OCO4)C(=O)CC2)cc1 (stereo not given)
4 |  | 6.80 | < 4.00 |  |  | COc1ccc(S(=O)(=O)NC(=O)C(c2ccc3c(c2)OCO3)n2nc(C)ccc2=O)cc1 (stereo not given)
5 |  | 5.39 | < 4.00 |  |  | COc1ccc(C2=NN(C(C(=O)NS(=O)(=O)c3ccc(C(C)C)cc3)c3ccc4c(c3)OCO4)C(=O)CC2)cc1OC (stereo not given)
6 | 631 nM | 7.47 | 5.54 |  |  | Cc1ccc(=O)n(C(C(=O)NS(=O)(=O)c2ccc(C(C)C)cc2)c2ccc3c(c2)OCO3)n1 (stereo not given)
7 |  | 5.49 | < 4.00 |  |  | CC(C)c1ccc(S(=O)(=O)NC(=O)C(c2ccc3c(c2)OCO3)N2N=C(c3cccs3)CCC2=O)cc1 (stereo not given)
8 |  | 7.49 | 5.70 |  |  | Cc1ccc(=O)n(C(C(=O)NS(=O)(=O)c2ccc(C(C)(C)C)cc2)c2ccc3c(c2)OCO3)n1 (stereo not given)
9 |  | 6.62 | 5.62 |  |  | Cc1ccc(=O)n(C(C(=O)NS(=O)(=O)c2ccc(-c3ccccc3)cc2)c2ccc3c(c2)OCO3)n1 (stereo not given)
10 |  | 5.40 | < 4.00 |  |  | CC(C)c1ccc(S(=O)(=O)NC(=O)C(c2ccc3c(c2)OCO3)n2nc(C(C)(C)C)ccc2=O)cc1 (stereo not given)
11 |  | < 4.00 | < 4.00 |  |  | O=C(O)C(c1ccc2c(c1)OCO2)N1N=C(c2ccccc2)CCC1=O (stereo not given)
12 |  | 5.57 | 5.19 |  |  | CC(C)c1ccc(S(=O)(=O)NC(=O)C(c2ccc3c(c2)OCO3)N2N=C(c3ccc(Cl)cc3)CCC2=O)cc1 (stereo not given)
13 |  | 6.59 | 5.59 |  |  | CC(C)c1ccc(S(=O)(=O)NC(=O)C(c2ccc3c(c2)OCO3)n2nc(C3CC3)ccc2=O)cc1 (stereo not given)
14 |  | 6.47 | 5.28 |  |  | Cc1cc(=O)n(C(C(=O)NS(=O)(=O)c2ccc(C(C)C)cc2)c2ccc3c(c2)OCO3)nc1C (stereo not given)
15 |  | < 4.00 | < 4.00 |  |  | COc1ccc(C2=NN(C(C(=O)NS(=O)(=O)c3ccc(C(C)C)cc3)c3ccc4c(c3)OCO4)C(=O)CC2)c(OC)c1 (stereo not given)
16 |  | 7.54 | 5.46 | 1580 nM | 1260 nM | Cc1cc(C)c(=O)n(C(C(=O)NS(=O)(=O)c2ccc(C(C)C)cc2)c2ccc3c(c2)OCO3)n1 (stereo not given)
17 |  | 5.59 | < 4.00 |  |  | CC(C)c1ccc(S(=O)(=O)NC(=O)C(c2ccc3c(c2)OCO3)N2N=C(c3ccccc3)CCC2=O)cc1 (stereo not given)
18 |  | 5.60 | 5.77 |  |  | CC(C)c1ccc(S(=O)(=O)NC(=O)C(c2ccc3c(c2)OCO3)n2nc3c(cc2=O)CCC3)cc1 (stereo not given)
19 |  | 6.64 | < 4.00 |  |  | Cc1ccc(=O)n(C(C(=O)NS(=O)(=O)c2ccc(Br)cc2)c2ccc3c(c2)OCO3)n1 (stereo not given)
20 |  | 7.49 | 5.59 |  |  | CCc1cc(C)nn(C(C(=O)NS(=O)(=O)c2ccc(C(C)C)cc2)c2ccc3c(c2)OCO3)c1=O (stereo not given)
21 |  | 6.54 | 5.35 |  |  | CCCc1cc(C)c(=O)n(C(C(=O)NS(=O)(=O)c2ccc(C(C)C)cc2)c2ccc3c(c2)OCO3)n1 (stereo not given)
22 |  | < 4.00 | < 4.00 |  |  | COc1ccc(OC)c(C2=NN(C(C(=O)NS(=O)(=O)c3ccc(C(C)C)cc3)c3ccc4c(c3)OCO4)C(=O)CC2)c1 (stereo not given)
23 |  | 5.40 | 5.11 |  |  | COc1ccc(-c2cc(C)c(=O)n(C(C(=O)NS(=O)(=O)c3ccc(C(C)C)cc3)c3ccc4c(c3)OCO4)n2)cc1 (stereo not given)
24 |  | 6.64 | < 4.00 |  |  | Cc1ccc(=O)n(C(C(=O)NS(=O)(=O)c2ccccc2)c2ccc3c(c2)OCO3)n1 (stereo not given)
25 |  | 5.49 | 5.24 |  |  | COc1ccc(-c2ccc(=O)n(C(C(=O)NS(=O)(=O)c3ccc(C(C)C)cc3)c3ccc4c(c3)OCO4)n2)cc1 (stereo not given)
26 |  | 5.59 | < 4.00 |  |  | Cc1cc(C)c(=O)n(C(C(=O)NS(=O)(=O)c2ccc(C(C)(C)C)cc2)c2ccc3c(c2)OCO3)n1 (single isomer, unassigned; form 1)
27 |  | 7.74 | 6.26 |  |  | Cc1cc(C)c(=O)n(C(C(=O)NS(=O)(=O)c2ccc(C(C)(C)C)cc2)c2ccc3c(c2)OCO3)n1 (single isomer, unassigned; form 2)
28 |  | 7.70 | 5.92 |  |  | Cc1cc(C)c(=O)n(C(C(=O)NS(=O)(=O)c2ccc(C(C)(C)C)cc2)c2ccc3c(c2)OCO3)n1 (stereo in doubt; 2q)
